Data taken from patent US20090010886A1, “Method for the Treatment of Myeloproliferative Diseases Using(+)-2-[1-(3-Ethoxy-4-Methoxyphenyl)-2- Methylsulfonylethyl]-4- Acetylaminoisoindoline-1,3- Dione” (CELGENE CORPORATION, priority 2004, published 2009).

Experiment: cardiovascular and respiratory function in anesthetized dogs (safety pharmacology)
Type: in vivo
Conditions: anesthetized Beagle dogs, three ascending doses 400, 800 and 1,200 mg/kg/day, infusion through the jugular vein
Procedure: The pharmacological properties of 3-(3,4-dimethoxy-phenyl)-3-(1-oxo-1,3-dihydro-isoindol-2-yl)-propionamide, including activity comparisons with thalidomide, are characterized in in vitro studies. Studies examine the effects of 3-(3,4-dimethoxy-phenyl)-3-(1-oxo-1,3-dihydro-isoindol-2-yl)-propionamide on the production of various cytokines. In addition, a safety pharmacology study of 3-(3,4-dimethoxy-phenyl)-3-(1-oxo-1,3-dihydro-isoindol-2-yl)-propionamide is conducted in dogs and the effects of the compound on ECG parameters are examined further as part of three repeat-dose toxicity studies in primates.
The effects of 3-(3,4-dimethoxy-phenyl)-3-(1-oxo-1,3-dihydro-isoindol-2-yl)-propionamide on cardiovascular and respiratory function are investigated in anesthetized dogs. Two groups of Beagle dogs (2/sex/group) are used. One group receives three doses of vehicle only and the other receives three ascending doses of 3-(3,4-dimethoxy-phenyl)-3-(1-oxo-1,3-dihydro-isoindol-2-yl)-propionamide (400, 800, and 1,200 mg/kg/day). In all cases, doses of 3-(3,4-dimethoxy-phenyl)-3-(1-oxo-1,3-dihydro-isoindol-2-yl)-propionamide or vehicle are successively administered via infusion through the jugular vein separated by intervals of at least 30 minutes. […]

COc1ccc(C(CC(N)=O)N2Cc3ccccc3C2=O)cc1OC (stereo not shown) [3-(3,4-Dimethoxy-phenyl)-3-(1-oxo-1,3-dihydro-isoindol-2-yl)-propionamide]
cardiovascular and respiratory changes compared to the vehicle control group: minimal
